Reference: publication PMC7356940, “Comparison between Colistin Sulfate Dry Powder and Solution for Pulmonary Delivery” (Pharmaceutics, 2020)
Where a name gives a salt, the structure may show the parent alone. Where a SMILES comes first, the peptide text is derived from it. Bridges are numbered along the chain shown (N, C = ends). [ ]: non-standard residue; d: D form. The star is where a group is joined. X1 = CC[C@H](C)CCCCC(=O)*; Dab = NCC[C@H](N)C(=O)O

Experiments:
[1] = fixed in the PK model; cited from earlier work
Excerpt: Plasma and ELF COLI concentrations versus time were simultaneously analyzed by a nonlinear mixed-effects method with S-ADAPT software (v 1.52, Biomedical Simulations Resource (BMSR), Los Angeles, USA) with S-ADAPT TRAN translator [19]. The structural model (Appendix C, Figure A3) used for data analysis has been developed in a previous study to fit plasma and ELF COLI concentrations after COLI intravenous administrations and solution nebulization to rats. Briefly, the systemic pharmacokinetics of COLI were described by a two-compartment model, characterized by a central compartment (Vc ...

[2] = previous studies; cited from earlier work
Experimental: The day before the experiment polyethylene catheters were implanted into the femoral artery of anesthetized rats. […] Accordingly, arterial blood samples were collected at 0, 0.25, 0.5, 1, 2, 3, and 4 h after pulmonary administration. Plasma was obtained and frozen at −80 °C.

[3] = Plasma and ELF pharmacokinetics after intratracheal administration, simultaneous PK modeling; details: male, Sprague–Dawley, rat, in vivo, rats, 0.35 mg·kg^−1, whatever the formulation used
Experimental: In vivo experiments were undertaken in compliance with EC Directive 2010/63/EU after agreement by a local ethics committee. Male Sprague–Dawley rats (n = 68) from Janvier Laboratories (Le Genest-St.-Isle, France) with weights of 324 ± 24 g (mean ± SD) were used. Animals were acclimatized for 5 days prior to experiments. They always had free access to food and water.
The target COLI dose delivered was 0.35 mg kg^−1 (base form). This dose was previously used in our lab to investigate the pharmacokinetic properties of colistin following intratracheal administration of colistin sulfate solution in rats. […] The insufflator was weighed with a 0.01 mg accuracy scale (Sartorius KB BA100) before and after insufflation to determine the exact amount of powder delivered, and the dose of colistin administered was calculated based on the animal’s weight. […]
Bronchoalveolar lavage fluid (BALF) collection was performed according to methods previously described. […] COLI and urea concentrations were determined in both plasma and BALF. […] Therefore, the COLI concentration in ELF(CELF) was calculated using Equation 1 from measured COLI concentrations in BALF (CBAL) by using urea as a marker of dilution. CELF = CBAL (Ureaplasma/UreaBAL)(1) where UreaBAL and Ureaplasma correspond to the concentrations of urea determined in BALF and plasma. […]

[4] = Apical-to-basolateral COLI transport across Calu-3 monolayers; type: in vitro ADME; details: human; Calu-3, air-interface 15 days, apical-to-basolateral, COLI 100 mg/L (COLI or dissolved INU-COLI particles), HBSS/10 mM HEPES pH 7.4, 6 h, LC-MS/MS; read-out: COLI apparent permeability (Papp)
Experimental: (§1) Calu-3 cells were purchased from the American Type Culture Collection (Manassas, VA, USA). The cells were cultured in DMEM/Ham’s F12 (1/1) (PanBiotech) supplemented with L-glutamine (2 mM), fetal calf serum (10% v/v), and incubated at 37 °C under 90–95% of RH and 5% v/v of CO2 in the air.
(§2) Samples were taken after 60 min at 37 °C.
(§3) The determination of COLI plasma concentrations was performed based on a validated LC-MS/MS method previously described. The chromatography was performed on an Alliance 2695 system (Waters, France) with a Jupiter 300-Å column (5.0 µm, 50 mm, 2.0-mm i.d.; Waters, St.-Quentin en Yvelines, France) and a mobile phase (flow rate 0.2 mL/min) consisting of 0.1% (v/v) formic acid in acetonitrile–0.1% formic acid in water (25:75 v/v). The mass spectrometer Micromass Quattro microAPI (Waters, France) was used in the positive/ion mode. The calibration standard curve was prepared with seven samples in rat plasma with COLI base concentrations ranging between 0.0097 and 10 µg·mL^−1. For analysis of COLI in BALF and in the medium used for the COLI transport experiments, 150 µL of sample was mixed with 100 µL of plasma and analyzed as for plasma.

[5] = system: Calu-3 cell epithelium model; assay: as above; type: in vitro ADME
Experimental: as §1, §2, §3

[6] = system: Calu-3 cell epithelium model; details: cited from earlier work
Excerpt: COLI Papp changed as a function of COLI concentration in the Calu-3 cell monolayer apical side (Figure 5). […] This value was consistent with a previous determination (0.42 × 10^−7 cm·s^−1).

[7] = cited from earlier work
Excerpt: Due to its low permeability across the lung–blood barrier, colistin methanesulfonate (CMS) is one of only four antibiotics currently used to treat Pseudomonas aeruginosa lung infections by inhalation. CMS is an anionic prodrug of colistin (COLI), which is a cationic lipopeptide mix composed mainly of two molecules: colistin A and B. Inhaled COLI therapy is almost always conducted by means of nebulization of CMS instead of the cationic COLI since the use of the latter can lead to more side effects, such as bronchoconstriction, throat irritation, and cough.

[8] = system: P. aeruginosa; details: cited from earlier work
Excerpt: However, CMS is not an optimal p ...

| Compound | COLI unbound plasma fraction [1] [%] | plasma COLI half-life [2] [min] | Cmax [3] [ng/mL] | Tmax [3] [min] | Papp A→B at 6 h, 100 mg/L [4] [×10⁻⁶ cm/s] | fold increase in COLI Papp ([5]; Calu-3, COLI concentration changed from 100 to 4000 mg/L) [fold] | fold increase in COLI Papp ([5]; Calu-3 A-B, 6 h, COLI concentration increased to 1000 mg/L (from 100 mg/L)) [fold] | additional fold increase in COLI Papp ([5]; Calu-3 A-B, 6 h, further increase in COLI concentration to 4000 mg/L (from 1000 mg/L)) [fold] | COLI Papp, previous determination [6] | COLI concentrations measured in the ELF ([7]; patients, six hours after inhalation of nebulized CMS solutions) | activity against P. aeruginosa [8] | fraction of the CMS dose converted into COLI in the lung ([7]; human, in vivo) |
| --- | --- | --- | --- | --- | --- | --- | --- | --- | --- | --- | --- | --- |
| CC[C@H](C)CCCCC(=O)N[C@@H](CCN)C(=O)N[C@H](C(=O)N[C@@H](CCN)C(=O)N[C@H]1CCNC(=O)[C@H]([C@@H](C)O)NC(=O)[C@H](CCN)NC(=O)[C@H](CCN)NC(=O)[C@H](CC(C)C)NC(=O)[C@@H](CC(C)C)NC(=O)[C@H](CCN)NC1=O)[C@@H](C)O [COLI, Colistin sulfate salt] (X1-[Dab]T[Dab][Dab][Dab][dL]L[Dab][Dab]T; lactam 4-C) | 45 | 30 to 40 | 330 | 30 | 0.043 ± 0.011 | 10 | 4 | 2.5 | 0.42 10^−7 cm·s^−1 | greater than 1000 mg/L | – | – |
| colistin methanesulfonate [CMS] | – | – | – | – | – | – | – | – | – | – | inactive | 1.4 % (w/w) |
